Test results from patent US12104173B2, “Method for differentiation of human pluripotent stem cell lines in suspension culture” (AGENCY FOR SCIENCE, TECHNOLOGY AND RESEARCH, priority 2018, dated 2024).

Key:
[1] = system: X13 induced pluripotent stem cells (iPSCs) on microcarriers; assay: screening of Wnt pathway activators: mesoderm induction (T-bra, KDR+PDGFRα−) by flow cytometry; format: cell-based, human; conditions: compared to other Wnt pathway modulators
Procedure: (§1) (A) is a column graph showing two different concentrations of seven Wnt pathway activators (BIO, SB-216763, CHIR98014, Inhibitor VIII, Kenpaullone, DRF053 dihydrochloride and Wnt3a). which were selected from literature reviews and screened with CHIR99021 as a control for the disclosed hematopoietic differentiation protocol. The viability of the X13 induced pluripotent stem cells (iPSCs) on microcarriers were tabulated accordingly 24 hours post treatment of the various Wnt pathway modulators. […] (B) is a column graph showing the percentage of mesogerm induction.
Human induced pluripotent stem cell-microcarrier (hiPSC-MC) aggregates (1×10^6 cells/ml, or 1e6 cells/nil) were transferred to mesoderm induction medium (cytokines all from Stemcell Technologies) plus Stemline II Hematopoietic Stem Cell Expansion medium (SL2) in either 6-well ultra-low attachment plates (5 ml) under continuous agitation at 75 rpm or 125 ml spinner flasks (50 ml) under continuous agitation at 36 rpm. Daily medium changes as indicated: Day 0: SL2+30 ng/ml BMP4+50 ng/ml VEGF-165+40 ng/ml Activin A+12-15 μM CHIR-99021; Day 1: SL2+30 ng/ml BMP4+50 ng/ml VEGF-165+40 ng/ml Activin A; Day 2: SL2+20 ng/ml BMP4+30 ng/ml VEGF165+5 ng/ml Activin A+10 ng/ml bFGF+20 ng/ml SCF+0.4 ng/ml β-estradiol. Samples were collected on day 1 and day 3 for flow cytometry analysis of T-brachyury (T-Bra) and KDR/PDGFRα cells, respectively.

[2] = system: X13 induced pluripotent stem cells (iPSCs) on microcarriers; conditions: 24 hours post treatment; 10 μM
Procedure: as §1

[3] = system: hES-3-MC aggregates (agitation culture); assay: DoE multifactorial mesoderm induction: % KDR+ cells by flow cytometry; format: cell-based, human; conditions: BMP4 10 to 50 ng/ml, Activin A 0-80 ng/ml, CHIR exposure 0 to 24 hours, 4 days post initiation of differentiation
Procedure: (§2) Different doses (and/or duration of exposure) of cytokines and small-molecules with known roles in inducing mesoderm and hematopoietic differentiation were evaluated using the MODDE® software for differentiation of hES-3 MC aggregate cultures initially derived under agitation. The DoE was designed to investigate effects of BMP4 (10-50 ng/ml), Activin A (0 to 80 ng/ml), CHIR (0-15 μM at 0 to 48 hours after start of mesoderm induction). These variables generated 29 culture conditions (FIG. 2A), which were tested for their effects on percent of KDR+ cells (4 days post initiation of differentiation) and the following stage of hematopoietic precursors generation (2 weeks of culture in Blast growth medium (BGM)).
(§3) Design of experiments (DoE) using a resolution IV Fractional Factorial Design was performed using the MODDE software (Sartorius Stedim Biotech, Germany) to evaluate initial BMP4, Activin A and CHIR-99021, doses and duration of exposure for their effects on the following response factors: induction of KDR+ cells 4 days post mesoderm induction or total hematopoietic precursor cells generated 2 weeks post differentiation.
Design of experiments (DoE) using a resolution IV Fractional Factorial Design was performed using the MODDE software (Sartorius Stedim Biotech, Germany) to evaluate initial BMP4, Activin A and CHIR-99021, doses and duration of exposure for their effects on the following response factors: induction of KDR+ cells 4 days post mesoderm induction or total hematopoietic precursors generated 2 weeks post differentiation. […] Computed model with R2 scores>0.5 indicate a model of significant fit, Q2 scores>0.1 indicate a significant model while Q2>0.5 indicate a good model for estimation of future prediction precision, model validity score of <0.25 indicate statistically significant model problems and reproducibility (the variation of the replicates compared to overall variability) should be greater than 0.5. […]

[4] = system: hES-3-MC aggregates (agitation culture); assay: DoE: hematopoietic precursor generation, 14 days in Blast growth medium (BGM); format: cell-based, human; conditions: BMP4 10 to 50 ng/ml, Activin A 0-80 ng/ml, CHIR exposure 0 to 24 hours, 2 weeks in BGM
Procedure: as §2
Design of experiments (DoE) using a resolution IV Fractional Factorial Design was performed using the MODDE software (Sartorius Stedim Biotech, Germany) to evaluate initial BMP4, Activin A and CHIR-99021, doses and duration of exposure for their effects on the following response factors: induction of KDR+ cells 4 days post mesoderm induction or total hematopoietic precursors generated 2 weeks post differentiation. […] Computed model with R2 scores>0.5 indicate a model of significant fit, Q2 scores>0.1 indicate a significant model while Q2>0.5 indicate a good model for estimation of future prediction precision, model validity score of <0.25 indicate statistically significant model problems and reproducibility (the variation of the replicates compared to overall variability) should be greater than 0.5.
Human pluripotent stem cell-microcarrier (HPSC-MC) aggregates (derived from 7 day continuous agitation conditions), equivalent to 5×10^5 cells, were seeded and differentiated in 24-well ultra-low attachment plates with Stemline II medium using multi-factorial conditions as detailed in FIG. 2A and FIG. 6A, as well as in Table 3. […]
Following 4 days of differentiation, single cells were derived from microcarrier aggregates by treatment with TrypLE. […] Fold-expansion was calculated as total number of cells derived after 2 weeks as compared to initial seeding of 1×10^5 cells.

[5] = system: O-neg hiPSC line (D5) expanded in agitated microcarrier cultures; assay: DoE multifactorial analysis of KDR+ cells, O-neg hiPSC; format: cell-based, human; conditions: CHIR exposure for 24 hours, 4 days post differentiation
Text: (B) Plot of KDR levels (%) for respective conditions tested (day 4 post differentiation). Conditions 27, 28 and 29 are triplicates of the same condition tested. […] Act=Activin A; CHI=CHIR-99021 for 24 hr, CH2=CHIR-99021 from 24-48 hr; BMP=BMP4. Computed P-values are indicated below the chart.
These findings were also confirmed using an O-neg hiPSC line (D5) expanded in agitated microcarrier cultures (FIG. 6). […] In summary, from the Design of experiment analysis, it was established that a BMP4 dose of 10 to 50 ng/ml, Activin A dose of 25 to 50 ng/ml and exposure of CHIR for 24 hours at a dose of 6 to 12 μM would be efficient for the generation of KDR+ cells.
as §3, with “precursors” for “precursor cells”, “differentiation. […]” for “differentiation.”

With `Cn1cc(C2=C(c3ccc(Cl)cc3Cl)C(=O)NC2=O)c2ccccc21` [SB-216763] the T-bra expression ([1]; 5 μM) was “higher T-bra expression”.

`Nc1nc(NCCNc2ncc(-n3ccnc3)c(-c3ccc(Cl)cc3Cl)n2)ccc1[N+](=O)[O-]` [CHIR98014] was tested, and the “viability of X13 iPSCs on microcarriers” value [2] was “significantly reduced viability” and the T-bra expression ([1]; 1 μM) was “higher T-bra expression”.

B1: Activin A: dimeric protein complex comprising two beta-A subunits (protein, UniProt P08476 311-426, looked up)
Inhibin beta A chain: GLECDGKVNICCKKQFFVSFKDIGWNDWIIAPSGYHANYCEGECPSHIAGTSGSSLSFHSTVINHYRMRGHSPFANLKSCCVPTKLRPMSMLYYDDGQNIIKKDIQNMIVEECGCS
modifications: Inhibin beta A chain homodimer
notes: dimeric protein complex comprising two beta-A subunits
For B1, the “effect of factor on percent of KDR+ cells (DoE)” value [3] was “did not significantly alter”, the “effect of factor on hematopoietic precursor generation (DoE)” value [4] was “did not significantly alter” and the “effect of factor on KDR+ cells (DoE)” value [5] was “significant factors for increased KDR+ cells”.
